# Where no end group is shown, it is not given here.
# Experiments:
# Gram-positive bacteria [1] = settings: geometric mean of MBCs, 7 Gram-positive strains (Table 2)
# E. coli K88 = settings: for MIC: MHB, 24 h 37°C, 95% growth inhibition; for MBC: value in brackets, >99.9% of cells killed
# In short: (§1)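 Peptides were serially diluted in 0.2% BSA and added to mid-logarithmic cells diluted in MHB to 0.5–1 × 10^6 CFU mL^–1. Assays followed an adapted NCCLS protocol.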
# E. coli K99 = settings: for MIC: MHB, 24 h 37°C, 95% growth inhibition; for MBC: value in brackets, >99.9% of cells killed
# In short: as §1
# E. coli O78 = format: cell-based, Escherichia coli; settings: O78, 24 h
# In short: (§2)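 Bacteria were grown to mid-log phase and diluted in MHB to 0.5–1 × 10^6 CFU mL^–1. Serial peptide dilutions in 0.2% BSA were added at equal volume and plates incubated 24 h at 37°C. Growth inhibition of 95% at 492 nm defined the MIC.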
# E. coli UB1005 = format: cell-based, Escherichia coli; settings: UB1005, 24 h
# In short: as §2
# E. coli 25922 = format: cell-based, Escherichia coli; settings: 25922, 24 h
# In short: as §2
# [2] = test system: Listeria monocytogenes CGMCC 1.1075; format: cell-based; settings: CGMCC 1.1075, 24 h
# In short: as §2
# S. aureus 29213 [3] = test: Salt sensitivity assay (MIC); format: cell-based, Staphylococcus aureus; settings: for MIC, FeCl3: 4 μM FeCl3; for MIC, NH4Cl: 6 μM NH4Cl; for MIC, ZnCl2: 8 μM ZnCl2; for MIC, MgCl2: 1 mM MgCl2; for MIC, CaCl2: 2 mM CaCl2; for MIC, KCl: 4.5 mM KCl; for MIC, NaCl: 150 mM NaCl; for MIC, Control: no added salt, three independent assays
# In short: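 MICs determined by broth microdilution in MHB with 0.5–1 × 10^6 CFU/mL, peptides serially diluted in 0.2% BSA, 24 h at 37°C. Medium supplemented with physiological salts (150 mM NaCl, 4.5 mM KCl, 6 μM NH4Cl, 8 μM ZnCl2, 1 mM MgCl2, 2mM CaCl2, 4 μM FeCl3). MIC = lowest concentration inhibiting 95% growth (A492).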
# S. epidermidis 12228 = format: cell-based, Staphylococcus epidermidis; settings: 12228, 24 h
# In short: as §2
# MRSA 43300 = format: cell-based, methicillin-resistant S. aureus; settings: 43300, 24 h
# In short: as §2
# S. typhimurium 7731 = format: cell-based, Salmonella typhimurium; settings: 7731, 24 h
# In short: as §2
# S. typhimurium 14028 = format: cell-based, Salmonella typhimurium; settings: 14028, 24 h
# In short: as §2
# S. aureus 29213 [4] = format: cell-based, Staphylococcus aureus; settings: 29213, 24 h
# In short: as §2
# S. aureus 25923 = format: cell-based, Staphylococcus aureus; settings: 25923, 24 h
# In short: as §2
# E. coli ATCC 25922 = test: Salt sensitivity assay (MIC); format: cell-based, Escherichia coli; settings: for MIC, FeCl3: 4 μM FeCl3; for MIC, NH4Cl: 6 μM NH4Cl; for MIC, ZnCl2: 8 μM ZnCl2; for MIC, MgCl2: 1 mM MgCl2; for MIC, CaCl2: 2 mM CaCl2; for MIC, KCl: 4.5 mM KCl; for MIC, NaCl: 150 mM NaCl; for MIC, Control: no added salt, three independent assays
# In short: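 The salt sensitivity of peptides was tested against E. coli ATCC 25922 using a modified NCCLS broth microdilution MIC method. Mid-log bacteria were diluted in MHB to 0.5–1 × 10^6 CFU mL^–1 and mixed in equal volumes with peptides serially diluted in 0.2% BSA in 96-well plates. Physiological salt was added where specified, and the assay was done three independent times.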
# Gram-negative bacteria [5] = settings: for GM MIC: geometric mean of MICs, 9 Gram-negative strains (Table 2); for TI, Gram-negative bacteria: therapeutic index TI = MHC/GM MIC
# In short: (§3)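 Broth microdilution adapted from NCCLS: mid-log bacteria diluted in MHB to 0.5–1 × 10^6 CFU mL^–1, mixed with peptides serially diluted in 0.2% BSA. After 24 h at 37°C, MIC taken as the lowest concentration inhibiting 95% of growth by absorbance at 492 nm. Assays repeated more than 3 times.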
# Gram-positive bacteria [6] = settings: for GM MIC: geometric mean of MICs, 7 Gram-positive strains (Table 2); for TI, Gram-positive bacteria: therapeutic index TI = MHC/GM MIC
# In short: as §3
# E. faecalis 29212 = format: cell-based, Enterococcus faecalis; settings: 29212, 24 h
# In short: as §2
# S. pullorum 7913 = format: cell-based, Salmonella pullorum; settings: 7913, 24 h
# In short: as §2
# Gram-negative bacteria [7] = settings: geometric mean of MBCs, 9 Gram-negative strains (Table 2)
# P. aeruginosa 27853 = format: cell-based, Pseudomonas aeruginosa; settings: 27853, 24 h
# In short: as §2
# [8] = test system: all of the tested bacterial strains; test: Geometric mean of MICs, all tested bacterial strains; format: cell-based; settings: for GM, All: geometric mean of MICs across all tested strains; for TI, All: therapeutic index TI = MHC/GM MIC
# In short: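 Mid-log bacteria at 0.5–1 × 10^6 CFU mL^–1 in MHB with peptides serially diluted in 0.2% BSA, 24 h at 37°C. MIC is the lowest concentration giving 95% growth inhibition by A492. MBC is the lowest giving >99.9% kill on agar subculture, and the GM is taken over all strains.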
# B. subtilis 63501 = format: cell-based, Bacillus subtilis; settings: 63501, 24 h
# In short: as §2
substance,measurement,setting,value
LLRLRRRLL-NH2 [L2],GM MBC,Gram-positive bacteria [1],70.66 µM
same,MIC,E. coli K88,16 µM
same,MBC,E. coli K88,32 µM
same,MIC,E. coli K99,8 µM
same,MBC,E. coli K99,16 µM
same,MBC,E. coli O78,16 µM
same,MIC,E. coli O78,8 µM
same,MBC,E. coli UB1005,32 µM
same,MIC,E. coli UB1005,16 µM
same,MBC,E. coli 25922,16 µM
same,MIC,E. coli 25922,8 µM
same,MIC,[2],>64 µM
same,"MIC, FeCl3",S. aureus 29213 [3],> 64 µM
same,"MIC, NH4Cl",S. aureus 29213 [3],> 64 µM
same,"MIC, ZnCl2",S. aureus 29213 [3],> 64 µM
same,"MIC, MgCl2",S. aureus 29213 [3],> 64 µM
same,"MIC, CaCl2",S. aureus 29213 [3],> 64 µM
same,"MIC, KCl",S. aureus 29213 [3],> 64 µM
same,"MIC, NaCl",S. aureus 29213 [3],> 64 µM
same,"MIC, Control",S. aureus 29213 [3],> 64 µM
same,MIC,S. epidermidis 12228,> 64 µM
same,MBC,MRSA 43300,64 µM
same,MIC,MRSA 43300,32 µM
same,MBC,S. typhimurium 7731,128 µM
same,MIC,S. typhimurium 7731,64 µM
same,MBC,S. typhimurium 14028,128 µM
same,MIC,S. typhimurium 14028,64 µM
same,MBC,S. aureus 29213 [4],128 µM
same,MIC,S. aureus 29213 [4],64 µM
same,MIC,S. aureus 25923,> 64 µM
same,"MIC, FeCl3",E. coli ATCC 25922,8 µM
same,"MIC, NH4Cl",E. coli ATCC 25922,8 µM
same,"MIC, ZnCl2",E. coli ATCC 25922,8 µM
same,"MIC, MgCl2",E. coli ATCC 25922,16 µM
same,"MIC, CaCl2",E. coli ATCC 25922,32 µM
same,"MIC, KCl",E. coli ATCC 25922,16 µM
same,"MIC, NaCl",E. coli ATCC 25922,32 µM
same,"MIC, Control",E. coli ATCC 25922,8 µM
same,GM MIC,Gram-negative bacteria [5],21.77 µM
same,"TI, Gram-negative bacteria",Gram-negative bacteria [5],11.76
same,GM MIC,Gram-positive bacteria [6],52.50 µM
same,"TI, Gram-positive bacteria",Gram-positive bacteria [6],4.88
same,MIC,E. faecalis 29212,> 64 µM
same,MBC,S. pullorum 7913,32 µM
same,MIC,S. pullorum 7913,16 µM
same,GM MBC,Gram-negative bacteria [7],40.32 µM
same,MIC,P. aeruginosa 27853,> 64 µM
same,"GM, All",[8],33.42 µM
same,"TI, All",[8],7.66
same,MBC,B. subtilis 63501,4 µM
same,MIC,B. subtilis 63501,2 µM
LLRLLRRRL-NH2 [L1],GM MBC,Gram-positive bacteria [1],39.01 µM
same,MIC,E. coli K88,8 µM
same,MBC,E. coli K88,16 µM
same,MIC,E. coli K99,8 µM
same,MBC,E. coli K99,16 µM
same,MBC,E. coli O78,16 µM
same,MIC,E. coli O78,8 µM
same,MBC,E. coli UB1005,32 µM
same,MIC,E. coli UB1005,16 µM
same,MBC,E. coli 25922,16 µM
same,MIC,E. coli 25922,8 µM
same,MIC,[2],> 64 µM
same,"MIC, FeCl3",S. aureus 29213 [3],> 64 µM
same,"MIC, NH4Cl",S. aureus 29213 [3],64 µM
same,"MIC, ZnCl2",S. aureus 29213 [3],64 µM
same,"MIC, MgCl2",S. aureus 29213 [3],64 µM
same,"MIC, CaCl2",S. aureus 29213 [3],> 64 µM
same,"MIC, KCl",S. aureus 29213 [3],64 µM
same,"MIC, NaCl",S. aureus 29213 [3],> 64 µM
same,MBC,S. epidermidis 12228,32 µM
same,MIC,S. epidermidis 12228,16 µM
same,MBC,MRSA 43300,32 µM
same,MIC,MRSA 43300,16 µM
same,MBC,S. typhimurium 7731,32 µM
same,MIC,S. typhimurium 7731,16 µM
same,MBC,S. typhimurium 14028,32 µM
same,MIC,S. typhimurium 14028,16 µM
same,MBC,S. aureus 29213 [4],32 µM
same,MIC,S. aureus 29213 [4],16 µM
same,MBC,S. aureus 25923,64 µM
same,MIC,S. aureus 25923,32 µM
same,"MIC, FeCl3",E. coli ATCC 25922,4 µM
same,"MIC, NH4Cl",E. coli ATCC 25922,4 µM
same,"MIC, ZnCl2",E. coli ATCC 25922,8 µM
same,"MIC, MgCl2",E. coli ATCC 25922,8 µM
same,"MIC, CaCl2",E. coli ATCC 25922,32 µM
same,"MIC, KCl",E. coli ATCC 25922,16 µM
same,"MIC, NaCl",E. coli ATCC 25922,64 µM
same,"MIC, Control",E. coli ATCC 25922,8 µM
same,GM MIC,Gram-negative bacteria [5],13.72 µM
same,"TI, Gram-negative bacteria",Gram-negative bacteria [5],18.66
same,GM MIC,Gram-positive bacteria [6],21.53 µM
same,"TI, Gram-positive bacteria",Gram-positive bacteria [6],2.97
same,MBC,E. faecalis 29212,128 µM
same,MIC,E. faecalis 29212,64 µM
same,MBC,S. pullorum 7913,16 µM
same,MIC,S. pullorum 7913,8 µM
same,GM MBC,Gram-negative bacteria [7],25.40 µM
same,MIC,P. aeruginosa 27853,> 64 µM
same,"GM, All",[8],16.71 µM
same,MBC,B. subtilis 63501,4 µM
same,MIC,B. subtilis 63501,2 µM
LRRLRLLRL-NH2 [L12],GM MBC,Gram-positive bacteria [1],86.14 µM
same,MIC,E. coli K88,16 µM
same,MBC,E. coli K88,32 µM
same,MIC,E. coli K99,> 64 µM
same,MBC,E. coli O78,128 µM
same,MIC,E. coli O78,64 µM
same,MBC,E. coli UB1005,64 µM
same,MIC,E. coli UB1005,32 µM
same,MBC,E. coli 25922,64 µM
same,MIC,E. coli 25922,32 µM
same,MBC,[2],32 µM
same,MIC,[2],16 µM
same,"MIC, FeCl3",S. aureus 29213 [3],> 64 µM
same,"MIC, NH4Cl",S. aureus 29213 [3],> 64 µM
same,"MIC, ZnCl2",S. aureus 29213 [3],> 64 µM
same,"MIC, MgCl2",S. aureus 29213 [3],> 64 µM
same,"MIC, CaCl2",S. aureus 29213 [3],> 64 µM
same,"MIC, KCl",S. aureus 29213 [3],> 64 µM
same,"MIC, NaCl",S. aureus 29213 [3],> 64 µM
same,"MIC, Control",S. aureus 29213 [3],> 64 µM
same,MIC,S. epidermidis 12228,> 64 µM
same,MIC,MRSA 43300,>64 µM
same,MIC,S. typhimurium 7731,> 64 µM
same,MIC,S. typhimurium 14028,> 64 µM
same,MIC,S. aureus 29213 [4],>64 µM
same,MIC,S. aureus 25923,> 64 µM
same,"MIC, FeCl3",E. coli ATCC 25922,32 µM
same,"MIC, NH4Cl",E. coli ATCC 25922,32 µM
same,"MIC, ZnCl2",E. coli ATCC 25922,32 µM
same,"MIC, MgCl2",E. coli ATCC 25922,> 64 µM
same,"MIC, CaCl2",E. coli ATCC 25922,> 64 µM
same,"MIC, KCl",E. coli ATCC 25922,32 µM
same,"MIC, NaCl",E. coli ATCC 25922,> 64 µM
same,"MIC, Control",E. coli ATCC 25922,32 µM
same,GM MIC,Gram-negative bacteria [5],59.26 µM
same,"TI, Gram-negative bacteria",Gram-negative bacteria [5],4.32
same,GM MIC,Gram-positive bacteria [6],70.66 µM
same,"TI, Gram-positive bacteria",Gram-positive bacteria [6],3.62
same,MIC,E. faecalis 29212,> 64 µM
same,MBC,S. pullorum 7913,64 µM
same,MIC,S. pullorum 7913,32 µM
same,GM MBC,Gram-negative bacteria [7],87.09 µM
same,MIC,P. aeruginosa 27853,> 64 µM
same,"GM, All",[8],64.00 µM
same,"TI, All",[8],4.00
same,MBC,B. subtilis 63501,32 µM
same,MIC,B. subtilis 63501,16 µM

# Reference: paper PMC7725003, “Systematically Studying the Optimal Amino Acid Distribution Patterns of the Amphiphilic Structure by Using the Ultrashort Amphiphiles” (Frontiers in Microbiology, 2020)
